Results published in patent US9420795B2, “Glycolate formulation for preserving wood and like materials” (Matterworks One Limited, priority 2011, dated 2016).

Test: Solubility of precipitated copper glycerolate
Conditions: suspended in water, pH reduced with sulphuric acid

Substance: copper (II) glycerolate [copper glycerolate]
- pH at which the suspended precipitate re-dissolved: around 4
